Literature values as cited in patent US8697713B2, “Pyrrolopyrimidines for pharmaceutical compositions” (Boehringer Ingelheim International GmbH, priority 2006, dated 2014).

Assays:
human Mnk2 protein = human Mnk2 protein (Homo sapiens, UniProt Q9HBH9)
phosphorylated eIF4E = settings: cell culture cells transfected with Mnk2 (Mnk2a or Mnk2b) or Mnk1

Chain of human Mnk2 protein (Q9HBH9 whole entry): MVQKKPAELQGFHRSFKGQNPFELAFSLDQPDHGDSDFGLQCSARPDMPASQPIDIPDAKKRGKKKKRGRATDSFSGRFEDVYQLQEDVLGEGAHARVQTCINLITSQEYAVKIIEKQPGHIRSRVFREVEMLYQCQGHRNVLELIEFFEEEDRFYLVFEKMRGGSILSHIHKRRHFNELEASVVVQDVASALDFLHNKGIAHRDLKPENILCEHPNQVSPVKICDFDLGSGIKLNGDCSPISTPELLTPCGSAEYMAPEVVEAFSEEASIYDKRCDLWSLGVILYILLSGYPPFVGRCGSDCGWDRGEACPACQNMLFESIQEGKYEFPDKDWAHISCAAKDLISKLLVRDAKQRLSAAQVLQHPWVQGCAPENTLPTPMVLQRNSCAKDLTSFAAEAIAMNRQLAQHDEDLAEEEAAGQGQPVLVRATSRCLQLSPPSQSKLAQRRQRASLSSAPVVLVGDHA

Row | SMILES | binds the human Mnk2 protein (human Mnk2 protein) | reduction of phosphorylated eIF4E (phosphorylated eIF4E)
1 | COC(=O)c1ccc(O)cc1 [4-hydroxybenzoic acid methyl ester] | binds | –
2 | Nc1ncnc2n[nH]c(Nc3ccc(F)cc3)c12 [CGP57380] | – | strong reduction
